The record followed here is patent US10981926B2 (Janssen Pharmaceutica NV, priority 2016, dated 2021).

A value given as a limit tells only on which side of the number the result lay.

The target in assay [1] is T1, F876L mutant Androgen Receptor (AR-F876L) (Homo sapiens (Human), UniProt P10275, F877L). Description: LNCaP-AR-F876L ANT reporter assay (antagonist mode). Particulars: for LNCaP-AR-F876L ANT pIC50 / IC50: antagonist mode, pIC50 = −Log10(IC50 in Molar); for Emax: read-out: LNCaP-AR-F876L ANT MAX % Inh; for IC50: read-out: LNCaP-AR-F876L ANT pIC50 (converted). In kind it is cell-based. A general note: A reporter such as luciferase makes a cellular process visible.
T1 sequence (P10275 whole entry F877L): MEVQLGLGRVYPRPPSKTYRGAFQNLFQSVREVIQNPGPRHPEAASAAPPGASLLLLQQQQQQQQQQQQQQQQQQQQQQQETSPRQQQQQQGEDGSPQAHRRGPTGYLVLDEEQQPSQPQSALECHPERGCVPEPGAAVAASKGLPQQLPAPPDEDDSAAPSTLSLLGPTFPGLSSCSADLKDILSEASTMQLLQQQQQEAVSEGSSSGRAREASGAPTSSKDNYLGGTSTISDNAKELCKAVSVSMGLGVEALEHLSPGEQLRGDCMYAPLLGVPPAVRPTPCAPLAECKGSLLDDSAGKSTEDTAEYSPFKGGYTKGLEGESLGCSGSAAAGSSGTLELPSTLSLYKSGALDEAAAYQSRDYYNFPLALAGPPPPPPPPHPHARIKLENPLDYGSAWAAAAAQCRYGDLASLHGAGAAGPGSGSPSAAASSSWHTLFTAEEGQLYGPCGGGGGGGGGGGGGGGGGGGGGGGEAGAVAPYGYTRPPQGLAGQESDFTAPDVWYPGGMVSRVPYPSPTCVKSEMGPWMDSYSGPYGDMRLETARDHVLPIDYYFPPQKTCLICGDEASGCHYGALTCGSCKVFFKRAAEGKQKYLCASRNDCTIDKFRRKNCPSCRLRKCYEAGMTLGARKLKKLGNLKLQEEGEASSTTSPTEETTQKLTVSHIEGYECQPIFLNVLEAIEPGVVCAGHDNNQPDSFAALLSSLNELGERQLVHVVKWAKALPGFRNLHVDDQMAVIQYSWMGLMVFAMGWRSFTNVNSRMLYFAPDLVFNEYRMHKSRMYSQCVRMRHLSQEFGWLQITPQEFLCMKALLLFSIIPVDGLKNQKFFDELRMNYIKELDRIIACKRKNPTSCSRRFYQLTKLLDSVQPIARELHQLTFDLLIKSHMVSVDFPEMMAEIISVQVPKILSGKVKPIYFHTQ

In assay [2] the target is T2, wild-type Androgen Receptor (AR-wt) (Homo sapiens (Human), UniProt P10275). Description: LNCaP-AR-wt AG reporter assay (agonist mode). In kind it is cell-based. Particulars: for EC50 / LNCaP-AR-wt AG pEC50: agonist mode, pEC50 = −Log10(EC50 in Molar); for EC50: read-out: LNCaP-AR-wt AG pEC50 (converted); for Emax: read-out: LNCaP-AR-wt AG MAX % Stim.
T2 sequence (P10275 whole entry): as the sequence (P10275 whole entry F877L) above, with L877F counted along it
For assay [3], the target named is T1, F876L mutant Androgen Receptor (AR-F876L). Description: LNCaP-AR-F876L AG reporter assay (agonist mode). In kind it is cell-based. Particulars: for EC50 / LNCaP-AR-F876L AG pEC50: agonist mode, pEC50 = −Log10(EC50 in Molar); for EC50: read-out: LNCaP-AR-F876L AG pEC50 (converted); for Emax: read-out: LNCaP-AR-F876L AG MAX % Stim.
The target of assay [4] is T2, wild-type Androgen Receptor (AR-wt). The assay is described as follows: LNCaP-AR-wt ANT reporter assay (antagonist mode). In kind it is cell-based. Particulars: for LNCaP-AR-wt ANT pIC50 / IC50: antagonist mode, pIC50 = −Log10(IC50 in Molar); for Emax: read-out: LNCaP-AR-wt ANT MAX % Inh; for IC50: read-out: LNCaP-AR-wt ANT pIC50 (converted).
The subject of a further assay is rGABA-gated Cl− channel. The assay is described as follows: GABA-Gated Cl Channel Antagonist Radioligand Binding Assay. Also on record: species or system rat. Particulars: 10 μM single point, [35S]-TBPS, cerebral cortex membrane homogenates. On the procedure:
GABA-gated C1 Chanel assays were performed at CEREP according to the following method. Membrane homogenates of cerebral cortex (120 μg protein) were incubated for 120 min at 22° C. with 3 nM […] in the absence or presence of the test compound in a buffer containing 50 mM Na2HPO4/KH2PO4 (pH 7.4) and 500 mM NaCl. Nonspecific binding was determined in the presence of 20 μM picrotoxinin. Following incubation, the samples were filtered rapidly under vacuum through glass fiber filters (GF/B, Packard) presoaked with 0.3% PEI and rinsed several times with ice-cold 50 mM Tris-HCl using a 96-sample cell harvester (Unifilter, Packard). The filters were dried then counted for radioactivity in a scintillation counter (Topcount, Packard) using a scintillation cocktail (Microscint 0, Packard). The results are expressed as a percent inhibition of the control radio ligand specific binding. The standard reference compound is picrotoxinin, which was tested in each experiment at several concentrations to obtain a competition curve from which its IC50 was calculated. In this assay, the following representative compounds disclosed herein had recorded activities at a 10 μM single point concentration in the GABA-gated Cl— Channel Binding Assay.

[5] abbreviates: maximum % inhibition of R1881 control response over the tested concentration range.
The mark [6] stands for this setting: maximum % stimulation (agonist response) over the tested concentration range.

Regarding `COc1cc(N2C(=O)C3(CCC3)N(c3ccc(OC4CCN(C)CC4)cc3)C2=S)cnc1C#N` [Cpd 23, 3-methoxy-5-[8-[4-[(1-methyl-4-piperidyl)oxy]phenyl]-5-oxo-7-thioxo-6,8-diazaspiro[3.4]octan-6-yl]pyridine-2-carbonitrile], the “LNCaP-AR-F876L ANT pIC50” value in assay [1] was 6.67. The Emax in assay [1] (setting [5]) turned out to be 101%; in assay [2] (setting [6]) it was 0.4%; in assay [3] (setting [6]), 0.4%; in assay [4] (setting [5]), 102%. Also, the EC50 in assay [2] and in assay [3] was > 15100 nM in each case. The “LNCaP-AR-wt ANT pIC50” value in assay [4] is on record as 6.52. Besides, the “rGABA-gated Cl− channel % inh @10 μM” value in the assay on rGABA-gated Cl− channel is listed as 4.8%.

For `CN1CCC(Oc2ccc(N3C(=S)N(c4cnc(C#N)c(Cl)c4)C(=O)C34CCC4)cc2)CC1` [Cpd 24, 3-chloro-5-[8-[4-[(1-methyl-4-piperidyl)oxy]phenyl]-5-oxo-7-thioxo-6,8-diazaspiro[3.4]octan-6-yl]pyridine-2-carbonitrile], the IC50 in assay [1] is 83.2 nM; in assay [4], 170 nM. The Emax stood at 101% in assay [1] (setting [5]), 0.6% in assay [2] (setting [6]), 0.5% in assay [3] (setting [6]) and 101% in assay [4] (setting [5]). Also, the EC50 in assay [2] and in assay [3] was > 15100 nM each time. The “rGABA-gated Cl− channel % inh @10 μM” value in the assay on rGABA-gated Cl− channel worked out at 25.4%.

For `N#Cc1ncc(N2C(=O)C3(CCC3)N(c3ccc(O[C@H]4C[C@H]5CC[C@@H](C4)N5)cc3)C2=S)cc1C(F)(F)F` [Cpd 29, 5-[8-[4-[[(1R,3r, 5S)-8-azabicyclo[3.2.1]octan-3-yl]oxy]phenyl]-5-oxo-7-thioxo-6,8-diazaspiro[3.4]octan-6-yl]-3-(trifluoromethyl)pyridine-2-carbonitrile], the “LNCaP-AR-F876L ANT pIC50” value in assay [1] came to 6.40. Besides, the Emax was 101% in assay [1] (setting [5]), 1.5% in assay [2] (setting [6]), 3.4% in assay [3] (setting [6]) and 91.5% in assay [4] (setting [5]). The “LNCaP-AR-wt AG pEC50” value in assay [2] is recorded as <4.82. Also, the “LNCaP-AR-F876L AG pEC50” value in assay [3] was <4.82. In addition, in assay [4], the “LNCaP-AR-wt ANT pIC50” value amounted to 6.05. For the same compound, in the assay with rGABA-gated Cl− channel, the “rGABA-gated Cl− channel % inh @10 μM” value was 39.9%.

For `N#Cc1ncc(N2C(=O)C3(CCC3)N(c3ccc(OC4CCCNCC4)cc3)C2=S)cc1C(F)(F)F` (stereo not drawn) [Cpd 30, 5-[8-[4-(azepan-4-yloxy)phenyl]-5-oxo-7-thioxo-6,8-diazaspiro[3.4]octan-6-yl]-3-(trifluoromethyl)pyridine-2-carbonitrile], the IC50 in assay [1] is 91.2 nM; in assay [4] it was 708 nM. Besides, in assay [1] (setting [5]), the “LNCaP-AR-F876L ANT MAX % Inh” value is recorded as 100.6%. Besides, in assay [2], the “LNCaP-AR-wt AG pEC50” value is listed as <4.82. For the same compound, the “LNCaP-AR-wt AG MAX % Stim” value in assay [2] (setting [6]) is 0.3%. Moreover, the “LNCaP-AR-F876L AG pEC50” value in assay [3] is recorded as <4.82. In assay [3] (setting [6]), the “LNCaP-AR-F876L AG MAX % Stim” value is on record as 0.3%. Further, the “LNCaP-AR-wt ANT MAX % Inh” value in assay [4] (setting [5]) is 99.7%. Moreover, in the assay on rGABA-gated Cl− channel, the “rGABA-gated Cl− channel % inh @10 μM” value is listed as 53.6%.

Take `CCOC(=O)N1CCN(C(=O)c2ccc(N3C(=S)N(c4cnc(C#N)c(C(F)(F)F)c4)C(=O)C34CCC4)cc2)CC1` [Cpd 31, ethyl 4-[4-[6-[6-cyano-5-(trifluoromethyl)-3-pyridyl]-5-oxo-7-thioxo-6,8-diazaspiro[3.4]octan-8-yl]benzoyl]piperazine-1-carboxylate]: the results for the IC50 in assay [1] and in assay [4] were 617 nM and 1290 nM, respectively. The Emax in assay [1] (setting [5]) came out at 87.1%; in assay [2] (setting [6]), 0.3%; in assay [3] (setting [6]), 0.1%; in assay [4] (setting [5]) it was 80.3%. For the same compound, the EC50 in assay [2] and in assay [3] was > 15100 nM in each case. In the assay on rGABA-gated Cl− channel, the “rGABA-gated Cl− channel % inh @10 μM” value worked out at 79.0%.
